Laboratory results reported in PMC11842588, “A first-in-class selective inhibitor of ERK1/2 and ERK5 overcomes drug resistance with a single-molecule strategy” (Signal Transduction and Targeted Therapy, 2025).

What was measured:
Assay in all cases: Kinase profiling
Format in all cases: biochemical
c-RAF(h) = biological target: T1, c-RAF(h) (Homo sapiens, UniProt P04049)
T1 construct: purchased Eurofins Cerep SA (KinaseProfiler)
Description: (§1) 380 kinases inhibitory activities of SKLB-D18 were conducted by Eurofins Cerep SA. The result was illustrated by kinase tree (http://www.kinhub.org/kinmap/).

MST4(h) = biological target: T2, MST4(h) (Homo sapiens, UniProt Q9P289)
T2 construct: purchased Eurofins Cerep SA (KinaseProfiler)
Description: as §1

DCAMKL3(h) = biological target: T3, DCAMKL3(h) (Homo sapiens, UniProt Q9C098)
T3 construct: purchased Eurofins Cerep SA (KinaseProfiler)
Description: as §1

GCN2(h) = biological target: T4, GCN2(h) (Homo sapiens, UniProt Q9P2K8)
T4 construct: purchased Eurofins Cerep SA (KinaseProfiler)
Description: as §1

CLIK1(h) = biological target: T5, CLIK1(h) (Homo sapiens, UniProt Q8TDR2)
T5 construct: purchased Eurofins Cerep SA (KinaseProfiler)
Description: as §1

BMPR2(h) = biological target: T6, BMPR2(h) (Homo sapiens, UniProt Q13873)
T6 construct: purchased Eurofins Cerep SA (KinaseProfiler)
Description: as §1

PKAcβ(h) = biological target: T7, PKAcβ(h) (Homo sapiens, UniProt P22694)
T7 construct: purchased Eurofins Cerep SA (KinaseProfiler)
Description: as §1

Mnk1(h) = biological target: T8, Mnk1(h) (Homo sapiens, UniProt Q9BUB5)
T8 construct: purchased Eurofins Cerep SA (KinaseProfiler)
Description: as §1

MRCKγ(h) = biological target: T9, MRCKγ(h) (Homo sapiens, UniProt Q6DT37)
T9 construct: purchased Eurofins Cerep SA (KinaseProfiler)
Description: as §1

IGF-1R(h), activated = biological target: T10, IGF-1R(h), activated (Homo sapiens, UniProt P08069)
T10 construct: purchased Eurofins Cerep SA (KinaseProfiler)
Description: as §1

TRB2(h) = biological target: T11, TRB2(h) (Homo sapiens, UniProt Q92519)
T11 construct: purchased Eurofins Cerep SA (KinaseProfiler)
Description: as §1

DAPK1(h) = biological target: T12, DAPK1(h) (Homo sapiens, UniProt P53355)
T12 construct: purchased Eurofins Cerep SA (KinaseProfiler)
Description: as §1

SAPK4(h) = biological target: T13, SAPK4(h) (Homo sapiens, UniProt O15264)
T13 construct: purchased Eurofins Cerep SA (KinaseProfiler)
Description: as §1

EphA4(h) = biological target: T14, EphA4(h) (Homo sapiens, UniProt P54764)
T14 construct: purchased Eurofins Cerep SA (KinaseProfiler)
Description: as §1

IRE1(h) = biological target: T15, IRE1(h) (Homo sapiens, UniProt O75460)
T15 construct: purchased Eurofins Cerep SA (KinaseProfiler)
Description: as §1

HRI(h) = biological target: T16, HRI(h) (Homo sapiens, UniProt Q9BQI3)
T16 construct: purchased Eurofins Cerep SA (KinaseProfiler)
Description: as §1

CaMKK2(h) = biological target: T17, CaMKK2(h) (Homo sapiens, UniProt Q96RR4)
T17 construct: purchased Eurofins Cerep SA (KinaseProfiler)
Description: as §1

ZIPK(h) = biological target: T18, ZIPK(h) (Homo sapiens, UniProt O43293)
T18 construct: purchased Eurofins Cerep SA (KinaseProfiler)
Description: as §1

TYK2(h) = biological target: T19, TYK2(h) (Homo sapiens, UniProt P29597)
T19 construct: purchased Eurofins Cerep SA (KinaseProfiler)
Description: as §1

DRAK2(h) = biological target: T20, DRAK2(h) (Homo sapiens, UniProt O94768)
T20 construct: purchased Eurofins Cerep SA (KinaseProfiler)
Description: as §1

CSK(h) = biological target: T21, CSK(h) (Homo sapiens, UniProt P41240)
T21 construct: purchased Eurofins Cerep SA (KinaseProfiler)
Description: as §1

ErbB2(h) = biological target: T22, ErbB2(h) (Homo sapiens, UniProt P04626)
T22 construct: purchased Eurofins Cerep SA (KinaseProfiler)
Description: as §1

GAK(h) = biological target: T23, GAK(h) (Homo sapiens, UniProt O14976)
T23 construct: purchased Eurofins Cerep SA (KinaseProfiler)
Description: as §1

NEK6(h) = biological target: T24, NEK6(h) (Homo sapiens, UniProt Q9HC98)
T24 construct: purchased Eurofins Cerep SA (KinaseProfiler)
Description: as §1

PAK6(h) = biological target: T25, PAK6(h) (Homo sapiens, UniProt Q9NQU5)
T25 construct: purchased Eurofins Cerep SA (KinaseProfiler)
Description: as §1

MST2(h) = biological target: T26, MST2(h) (Homo sapiens, UniProt Q13188)
T26 construct: purchased Eurofins Cerep SA (KinaseProfiler)
Description: as §1

PKBα(h) = biological target: T27, PKBα(h) (Homo sapiens, UniProt P31749)
T27 construct: purchased Eurofins Cerep SA (KinaseProfiler)
Description: as §1

EphB1(h) = biological target: T28, EphB1(h) (Homo sapiens, UniProt P54762)
T28 construct: purchased Eurofins Cerep SA (KinaseProfiler)
Description: as §1

NEK11(h) = biological target: T29, NEK11(h) (Homo sapiens, UniProt Q8NG66)
T29 construct: purchased Eurofins Cerep SA (KinaseProfiler)
Description: as §1

ALK4(h) = biological target: T30, ALK4(h) (Homo sapiens, UniProt P36896)
T30 construct: purchased Eurofins Cerep SA (KinaseProfiler)
Description: as §1

PKBγ(h) = biological target: T31, PKBγ(h) (Homo sapiens, UniProt Q9Y243)
T31 construct: purchased Eurofins Cerep SA (KinaseProfiler)
Description: as §1

MKK6(h) = biological target: T32, MKK6(h) (Homo sapiens, UniProt P52564)
T32 construct: purchased Eurofins Cerep SA (KinaseProfiler)
Description: as §1

CDK6/cyclinD3(h) = biological target: T33, CDK6/cyclinD3(h) (Homo sapiens, UniProt Q00534)
T33 construct: purchased Eurofins Cerep SA (KinaseProfiler)
Description: as §1

PKD2(h) = biological target: T34, PKD2(h) (Homo sapiens, UniProt Q9BZL6)
T34 construct: purchased Eurofins Cerep SA (KinaseProfiler)
Description: as §1

JAK2(h) = biological target: T35, JAK2(h) (Homo sapiens, UniProt O60674)
T35 construct: purchased Eurofins Cerep SA (KinaseProfiler)
Description: as §1

PKG1β(h) = biological target: T36, PKG1β(h) (Homo sapiens, UniProt Q13976)
T36 construct: purchased Eurofins Cerep SA (KinaseProfiler)
Description: as §1

CDK9/cyclin T1(h) = biological target: T37, CDK9/cyclin T1(h) (Homo sapiens, UniProt P50750)
T37 construct: purchased Eurofins Cerep SA (KinaseProfiler)
Description: as §1

Haspin(h) = biological target: T38, Haspin(h) (Homo sapiens, UniProt Q8TF76)
T38 construct: purchased Eurofins Cerep SA (KinaseProfiler)
Description: as §1

NEK9(h) = biological target: T39, NEK9(h) (Homo sapiens, UniProt Q8TD19)
T39 construct: purchased Eurofins Cerep SA (KinaseProfiler)
Description: as §1

CK2α1(h) = biological target: T40, CK2α1(h) (Homo sapiens, UniProt P68400)
T40 construct: purchased Eurofins Cerep SA (KinaseProfiler)
Description: as §1

Abl(h) = biological target: T41, Abl(h) (Homo sapiens, UniProt P00519)
T41 construct: purchased Eurofins Cerep SA (KinaseProfiler)
Description: as §1

T16 sequence (Q9BQI3 whole entry): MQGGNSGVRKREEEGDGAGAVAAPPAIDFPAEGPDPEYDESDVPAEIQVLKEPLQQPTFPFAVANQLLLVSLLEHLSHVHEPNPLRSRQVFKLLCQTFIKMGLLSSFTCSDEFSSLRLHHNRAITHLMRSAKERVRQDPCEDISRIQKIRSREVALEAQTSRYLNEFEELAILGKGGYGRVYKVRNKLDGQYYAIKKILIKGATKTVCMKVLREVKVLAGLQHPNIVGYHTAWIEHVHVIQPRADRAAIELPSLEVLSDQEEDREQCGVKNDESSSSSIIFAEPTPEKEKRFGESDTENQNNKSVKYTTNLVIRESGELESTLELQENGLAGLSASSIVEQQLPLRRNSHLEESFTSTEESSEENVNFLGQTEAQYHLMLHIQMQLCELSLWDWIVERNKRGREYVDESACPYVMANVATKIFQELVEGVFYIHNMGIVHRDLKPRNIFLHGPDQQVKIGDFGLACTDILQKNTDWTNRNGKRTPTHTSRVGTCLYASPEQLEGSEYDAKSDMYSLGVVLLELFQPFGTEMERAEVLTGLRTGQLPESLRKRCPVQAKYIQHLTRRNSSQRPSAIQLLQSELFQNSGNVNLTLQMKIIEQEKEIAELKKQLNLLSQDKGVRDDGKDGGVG
T38 sequence (Q8TF76 whole entry): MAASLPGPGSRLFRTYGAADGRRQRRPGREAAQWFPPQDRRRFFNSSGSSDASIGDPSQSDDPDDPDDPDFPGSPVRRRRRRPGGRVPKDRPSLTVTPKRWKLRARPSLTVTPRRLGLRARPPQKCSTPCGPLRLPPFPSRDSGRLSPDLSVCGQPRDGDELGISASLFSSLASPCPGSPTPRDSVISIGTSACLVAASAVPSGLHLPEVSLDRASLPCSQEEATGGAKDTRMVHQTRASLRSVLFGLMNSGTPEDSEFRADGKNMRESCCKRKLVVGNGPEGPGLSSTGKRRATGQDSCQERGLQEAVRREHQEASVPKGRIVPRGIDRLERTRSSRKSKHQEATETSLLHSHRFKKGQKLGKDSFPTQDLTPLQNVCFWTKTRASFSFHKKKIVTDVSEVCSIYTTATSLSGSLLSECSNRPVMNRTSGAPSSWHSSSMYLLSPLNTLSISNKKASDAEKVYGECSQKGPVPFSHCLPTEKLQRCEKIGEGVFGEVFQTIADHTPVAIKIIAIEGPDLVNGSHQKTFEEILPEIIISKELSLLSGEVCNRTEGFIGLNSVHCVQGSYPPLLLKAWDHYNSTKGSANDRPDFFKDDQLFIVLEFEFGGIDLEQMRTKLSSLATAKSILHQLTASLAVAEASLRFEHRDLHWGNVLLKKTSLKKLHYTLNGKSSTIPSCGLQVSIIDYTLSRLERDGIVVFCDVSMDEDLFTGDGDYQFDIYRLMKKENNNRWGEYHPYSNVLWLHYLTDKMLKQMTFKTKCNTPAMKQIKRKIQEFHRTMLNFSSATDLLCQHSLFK
T10 sequence (P08069 31-1367): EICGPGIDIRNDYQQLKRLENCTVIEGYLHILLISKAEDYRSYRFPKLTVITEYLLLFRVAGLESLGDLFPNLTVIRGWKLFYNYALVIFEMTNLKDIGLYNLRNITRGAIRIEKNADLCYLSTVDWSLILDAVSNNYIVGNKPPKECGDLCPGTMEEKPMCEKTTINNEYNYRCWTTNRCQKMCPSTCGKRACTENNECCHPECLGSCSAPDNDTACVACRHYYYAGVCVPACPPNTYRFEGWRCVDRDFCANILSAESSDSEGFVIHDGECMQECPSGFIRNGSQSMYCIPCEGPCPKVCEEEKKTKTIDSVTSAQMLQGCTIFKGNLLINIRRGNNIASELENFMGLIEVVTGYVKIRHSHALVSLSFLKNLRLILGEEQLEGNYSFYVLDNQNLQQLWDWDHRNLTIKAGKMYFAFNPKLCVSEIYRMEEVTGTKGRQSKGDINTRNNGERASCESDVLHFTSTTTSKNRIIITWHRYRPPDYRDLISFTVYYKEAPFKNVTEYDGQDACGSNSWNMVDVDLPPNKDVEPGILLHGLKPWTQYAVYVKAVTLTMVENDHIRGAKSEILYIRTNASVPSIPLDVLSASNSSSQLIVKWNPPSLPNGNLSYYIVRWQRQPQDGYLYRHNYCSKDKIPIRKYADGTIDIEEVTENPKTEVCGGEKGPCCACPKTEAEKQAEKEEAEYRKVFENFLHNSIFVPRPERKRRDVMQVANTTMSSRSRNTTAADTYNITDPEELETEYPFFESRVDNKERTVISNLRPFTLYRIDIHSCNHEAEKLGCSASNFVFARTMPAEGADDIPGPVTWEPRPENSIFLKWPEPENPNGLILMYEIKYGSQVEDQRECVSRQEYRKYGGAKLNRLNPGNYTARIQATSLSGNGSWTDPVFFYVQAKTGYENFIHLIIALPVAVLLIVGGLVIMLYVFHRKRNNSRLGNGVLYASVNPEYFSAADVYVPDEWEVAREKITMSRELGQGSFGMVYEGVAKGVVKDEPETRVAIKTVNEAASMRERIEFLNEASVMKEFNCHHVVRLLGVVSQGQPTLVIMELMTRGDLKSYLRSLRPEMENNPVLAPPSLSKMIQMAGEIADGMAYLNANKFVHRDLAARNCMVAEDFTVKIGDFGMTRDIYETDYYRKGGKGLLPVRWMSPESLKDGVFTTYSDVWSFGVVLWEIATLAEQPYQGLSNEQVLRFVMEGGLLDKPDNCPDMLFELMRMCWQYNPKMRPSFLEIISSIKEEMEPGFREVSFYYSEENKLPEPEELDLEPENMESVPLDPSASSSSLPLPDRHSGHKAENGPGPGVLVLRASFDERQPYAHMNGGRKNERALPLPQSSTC
T21 sequence (P41240 whole entry): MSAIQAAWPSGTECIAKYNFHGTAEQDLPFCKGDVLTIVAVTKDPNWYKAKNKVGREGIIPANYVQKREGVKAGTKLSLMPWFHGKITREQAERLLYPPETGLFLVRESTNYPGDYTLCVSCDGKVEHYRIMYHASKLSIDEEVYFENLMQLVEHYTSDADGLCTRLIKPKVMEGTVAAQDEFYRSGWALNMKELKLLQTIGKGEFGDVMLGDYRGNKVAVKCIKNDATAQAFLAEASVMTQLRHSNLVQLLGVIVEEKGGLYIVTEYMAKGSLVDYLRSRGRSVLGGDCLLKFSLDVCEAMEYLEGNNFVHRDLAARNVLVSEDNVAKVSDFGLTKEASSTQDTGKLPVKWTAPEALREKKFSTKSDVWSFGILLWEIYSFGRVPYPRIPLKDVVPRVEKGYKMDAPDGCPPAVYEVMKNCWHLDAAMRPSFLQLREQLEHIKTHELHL
T9 sequence (Q6DT37 whole entry): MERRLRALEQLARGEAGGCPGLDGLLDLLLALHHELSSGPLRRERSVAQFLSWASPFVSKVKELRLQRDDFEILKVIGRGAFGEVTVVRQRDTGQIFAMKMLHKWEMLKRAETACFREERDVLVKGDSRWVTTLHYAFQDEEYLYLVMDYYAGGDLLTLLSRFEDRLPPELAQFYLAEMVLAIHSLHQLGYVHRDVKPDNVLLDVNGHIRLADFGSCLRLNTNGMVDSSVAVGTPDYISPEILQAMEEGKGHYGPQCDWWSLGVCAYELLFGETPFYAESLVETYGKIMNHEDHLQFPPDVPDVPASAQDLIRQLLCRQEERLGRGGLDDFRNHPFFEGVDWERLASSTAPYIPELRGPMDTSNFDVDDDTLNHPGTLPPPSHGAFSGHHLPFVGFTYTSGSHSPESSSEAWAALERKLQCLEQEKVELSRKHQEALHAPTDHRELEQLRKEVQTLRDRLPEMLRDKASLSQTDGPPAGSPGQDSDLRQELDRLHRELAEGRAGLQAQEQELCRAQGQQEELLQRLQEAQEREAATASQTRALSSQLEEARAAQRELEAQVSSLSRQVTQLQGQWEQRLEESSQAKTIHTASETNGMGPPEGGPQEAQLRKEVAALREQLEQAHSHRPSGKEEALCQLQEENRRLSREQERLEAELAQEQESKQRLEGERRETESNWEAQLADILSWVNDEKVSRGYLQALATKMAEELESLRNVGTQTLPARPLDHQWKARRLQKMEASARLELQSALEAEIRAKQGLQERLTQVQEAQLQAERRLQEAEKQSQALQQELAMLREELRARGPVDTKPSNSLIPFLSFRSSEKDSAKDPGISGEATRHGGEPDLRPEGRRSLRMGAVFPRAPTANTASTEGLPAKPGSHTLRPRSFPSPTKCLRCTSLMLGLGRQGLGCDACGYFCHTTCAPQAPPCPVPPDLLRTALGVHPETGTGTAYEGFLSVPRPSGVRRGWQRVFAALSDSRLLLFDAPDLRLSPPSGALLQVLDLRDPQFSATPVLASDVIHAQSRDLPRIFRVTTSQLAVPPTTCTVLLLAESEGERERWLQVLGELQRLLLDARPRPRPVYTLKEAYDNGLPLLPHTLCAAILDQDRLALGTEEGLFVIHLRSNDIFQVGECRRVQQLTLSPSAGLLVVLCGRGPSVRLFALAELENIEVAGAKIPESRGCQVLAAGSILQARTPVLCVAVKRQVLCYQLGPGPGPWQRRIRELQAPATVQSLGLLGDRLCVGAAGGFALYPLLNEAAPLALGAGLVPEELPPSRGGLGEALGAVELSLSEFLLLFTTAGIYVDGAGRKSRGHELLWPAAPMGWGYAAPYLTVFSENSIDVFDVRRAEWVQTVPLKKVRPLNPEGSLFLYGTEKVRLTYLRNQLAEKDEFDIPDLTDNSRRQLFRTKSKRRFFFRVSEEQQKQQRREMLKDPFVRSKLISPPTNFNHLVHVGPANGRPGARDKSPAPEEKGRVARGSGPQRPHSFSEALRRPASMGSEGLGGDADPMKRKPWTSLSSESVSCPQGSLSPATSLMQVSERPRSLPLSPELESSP
T24 sequence (Q9HC98 whole entry): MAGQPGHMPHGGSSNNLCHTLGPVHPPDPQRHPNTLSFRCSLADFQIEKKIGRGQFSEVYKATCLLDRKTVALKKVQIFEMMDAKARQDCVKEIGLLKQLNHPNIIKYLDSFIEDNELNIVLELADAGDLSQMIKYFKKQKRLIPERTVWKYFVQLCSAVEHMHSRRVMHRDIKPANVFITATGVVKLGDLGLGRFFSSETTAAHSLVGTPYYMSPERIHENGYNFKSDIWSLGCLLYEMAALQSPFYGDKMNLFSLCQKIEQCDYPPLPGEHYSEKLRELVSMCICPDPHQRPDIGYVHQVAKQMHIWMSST

Which inhibition at 1 µM (c-RAF(h)) does the source give for `CN(C)Cc1cccc(Nc2ncc(Cl)c(-c3csc(C(=O)NN4CCOCC4)c3)n2)c1` [SKLB-D18, 4-(5-chloro-2-((3-((dimethylamino)methyl)phenyl)amino)pyrimidin-4-yl)-N-morpholinothiophene-2-carboxamide] here?
Its inhibition at 1 µM is 65%.

What about the inhibition at 1 µM (MST4(h)) of the same compound?
Its inhibition at 1 µM is 15%.

And the inhibition at 1 µM (DCAMKL3(h))?
Its inhibition at 1 µM is 66%.

And the inhibition at 1 µM (GCN2(h))?
Its inhibition at 1 µM is 69%.

What about the inhibition at 1 µM (CLIK1(h)) of the same compound?
The inhibition at 1 µM was 12%.

What about the inhibition at 1 µM (BMPR2(h)) of the same compound?
Its inhibition at 1 µM is 21%.

And the inhibition at 1 µM (PKAcβ(h))?
Its inhibition at 1 µM is 12%.

What about the inhibition at 1 µM (Mnk1(h)) of the same compound?
The inhibition at 1 µM was 62%.

And the inhibition at 1 µM (MRCKγ(h))?
The inhibition at 1 µM was 34%.

What about the inhibition at 1 µM (IGF-1R(h), activated) of the same compound?
Its inhibition at 1 µM is 0%.

What about the inhibition at 1 µM (TRB2(h)) of the same compound?
The inhibition at 1 µM was 71%.

And the inhibition at 1 µM (DAPK1(h))?
The inhibition at 1 µM was 67%.

And the inhibition at 1 µM (SAPK4(h))?
Its inhibition at 1 µM is 53%.

What about the inhibition at 1 µM (EphA4(h)) of the same compound?
Its inhibition at 1 µM is 6%.

What about the inhibition at 1 µM (IRE1(h)) of the same compound?
Its inhibition at 1 µM is 2%.

What about the inhibition at 1 µM (HRI(h)) of the same compound?
The inhibition at 1 µM was 38%.

What about the inhibition at 1 µM (CaMKK2(h)) of the same compound?
The inhibition at 1 µM was 21%.

And the inhibition at 1 µM (ZIPK(h))?
The inhibition at 1 µM was 64%.

What about the inhibition at 1 µM (TYK2(h)) of the same compound?
Its inhibition at 1 µM is 83%.

And the inhibition at 1 µM (DRAK2(h))?
Its inhibition at 1 µM is 29%.

What about the inhibition at 1 µM (CSK(h)) of the same compound?
The inhibition at 1 µM was -11%.

And the inhibition at 1 µM (ErbB2(h))?
The inhibition at 1 µM was -3%.

And the inhibition at 1 µM (GAK(h))?
The inhibition at 1 µM was 78%.

What about the inhibition at 1 µM (NEK6(h)) of the same compound?
Its inhibition at 1 µM is 0%.

And the inhibition at 1 µM (PAK6(h))?
Its inhibition at 1 µM is 10%.

What about the inhibition at 1 µM (MST2(h)) of the same compound?
Its inhibition at 1 µM is 40%.

And the inhibition at 1 µM (PKBα(h))?
Its inhibition at 1 µM is 12%.

What about the inhibition at 1 µM (EphB1(h)) of the same compound?
The inhibition at 1 µM was 23%.

And the inhibition at 1 µM (NEK11(h))?
Its inhibition at 1 µM is -4%.

What about the inhibition at 1 µM (ALK4(h)) of the same compound?
The inhibition at 1 µM was 26%.

And the inhibition at 1 µM (PKBγ(h))?
Its inhibition at 1 µM is 14%.

What about the inhibition at 1 µM (MKK6(h)) of the same compound?
The inhibition at 1 µM was 5%.

And the inhibition at 1 µM (CDK6/cyclinD3(h))?
The inhibition at 1 µM was 47%.

And the inhibition at 1 µM (PKD2(h))?
The inhibition at 1 µM was 66%.

And the inhibition at 1 µM (JAK2(h))?
The inhibition at 1 µM was 67%.

What about the inhibition at 1 µM (PKG1β(h)) of the same compound?
The inhibition at 1 µM was 4%.

What about the inhibition at 1 µM (CDK9/cyclin T1(h)) of the same compound?
Its inhibition at 1 µM is 28%.

What about the inhibition at 1 µM (Haspin(h)) of the same compound?
Its inhibition at 1 µM is 12%.

What about the inhibition at 1 µM (NEK9(h)) of the same compound?
Its inhibition at 1 µM is 56%.

And the inhibition at 1 µM (CK2α1(h))?
The inhibition at 1 µM was 49%.

What about the inhibition at 1 µM (Abl(h)) of the same compound?
Its inhibition at 1 µM is 45%.
